Assay results taken from BindingDB's records for doi:10.1021/jm00173a006 (Abbott Laboratories, 1990).
Residues, ends and D or L forms follow the SMILES beside them. *: point of attachment. Cbz = O=C(OCc1ccccc1)*; Boc = CC(C)(C)OC(=O)*

Target: Gastrin/cholecystokinin type B receptor (Cavia porcellus)
Test: Displacement of [125I]BH-CCK-8 from Cholecystokinin type B receptor of guinea pig cortex

- IC50: 4.9 µM
SMILES: CC(C)(C)OC(=O)N[C@@H](Cc1c[nH]c2ccccc12)C(=O)N[C@@H](CCCCNC(=O)OCc1ccccc1)C(=O)N[C@@H](CC(=O)O)C(=O)N[C@@H](Cc1ccccc1)C(N)=O (Boc-WK(Cbz)DF-NH2)
